Measured values reported in patent publication US20070293491A1, “INDAZOLE COMPOUNDS AND METHODS FOR INHIBITION OF CDC7” (NOVARTIS VACCINES AND DIAGNOSTICS, INC., priority 2006, published 2007).

Target: cdc7/dbf4 (Homo sapiens, UniProt O00311)
Assay: In vitro assay of CDC7/DBF4 inhibition (phosphoserine 108-MCM-2 detection, donor/acceptor beads)
Format: biochemical
Conditions: 0.5 μM ATP solution, MCM-2 substrate, 1 hr room temperature; for inhibition at 1.39 µM (stock): Test Concentration 1.39 μM; for inhibition at 0.93 µM (stock): Test Concentration 0.93 μM
Protocol: A 20.5 μL kinase reaction was performed on OptiPlate-384 plates PerkinElmer, 6007290) as follows by sequential addition of: 0.5 μL of test compounds of the invention in DMSO, 10 μL 0.5 μM ATP in reaction buffer, 10 μL 2.2 nM cdc7/dbf4 baculovirus derived), 4.4 nM MCM-2 in a reaction buffer. The reaction proceeded for 1 hr at room temperature on an orbital shaker. The reaction was terminated by addition of 10 μL detection buffer containing Streptavidin-coated donor beads and Protein A conjugated acceptor beads (54 μg/ml), and 1:4000 diluted rabbit antibody against phosphoserine 108-MCM-2 (Bethyl Labs). The mixture was incubated at room temperature for 4 hrs in the dark. The plate was then read on a PerkinElmer Fusion instrument. The reaction buffer contained 50 mM Hepes (pH 7.2-7.5), 10 mM MgCl2, 1 mM dithiothreitol (DTT), leupeptin (10 μg/ml), and bovine serum albumin (BSA) (0.2 mg/ml). The detection buffer contained 25 mM Tris (pH 7.5), 400 mM NaCl, 100mM EDTA, 0.3% BSA, and 0.05% Tween 20.
Representative compounds of the invention which inhibited the kinase reaction >70% in the above cdc7/db4 assay were selected for further analysis and confirmation. Test compounds were diluted in DMSO to a concentration of 0.93 μM or 1.39 μM and 0.5 μL of each test solution was added to wells for assay using the assay conditions and methods as described above.

Chain of cdc7/dbf4 (O00311 whole entry): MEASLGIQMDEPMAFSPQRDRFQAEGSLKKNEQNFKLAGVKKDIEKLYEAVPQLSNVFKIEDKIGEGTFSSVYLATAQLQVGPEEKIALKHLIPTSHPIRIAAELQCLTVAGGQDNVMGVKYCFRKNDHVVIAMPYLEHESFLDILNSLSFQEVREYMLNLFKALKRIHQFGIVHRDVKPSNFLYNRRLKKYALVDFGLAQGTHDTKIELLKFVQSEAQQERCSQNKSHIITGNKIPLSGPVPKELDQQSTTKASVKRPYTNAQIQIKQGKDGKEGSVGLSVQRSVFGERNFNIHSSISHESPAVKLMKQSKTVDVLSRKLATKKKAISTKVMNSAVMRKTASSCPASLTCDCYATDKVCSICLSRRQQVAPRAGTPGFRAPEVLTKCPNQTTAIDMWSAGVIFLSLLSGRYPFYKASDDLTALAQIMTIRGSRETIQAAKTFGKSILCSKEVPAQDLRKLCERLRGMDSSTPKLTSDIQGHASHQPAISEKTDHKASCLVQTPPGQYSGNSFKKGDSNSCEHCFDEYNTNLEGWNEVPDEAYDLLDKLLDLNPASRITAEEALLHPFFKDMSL
Chain of cdc7/dbf4 (Q9UBU7 whole entry partner): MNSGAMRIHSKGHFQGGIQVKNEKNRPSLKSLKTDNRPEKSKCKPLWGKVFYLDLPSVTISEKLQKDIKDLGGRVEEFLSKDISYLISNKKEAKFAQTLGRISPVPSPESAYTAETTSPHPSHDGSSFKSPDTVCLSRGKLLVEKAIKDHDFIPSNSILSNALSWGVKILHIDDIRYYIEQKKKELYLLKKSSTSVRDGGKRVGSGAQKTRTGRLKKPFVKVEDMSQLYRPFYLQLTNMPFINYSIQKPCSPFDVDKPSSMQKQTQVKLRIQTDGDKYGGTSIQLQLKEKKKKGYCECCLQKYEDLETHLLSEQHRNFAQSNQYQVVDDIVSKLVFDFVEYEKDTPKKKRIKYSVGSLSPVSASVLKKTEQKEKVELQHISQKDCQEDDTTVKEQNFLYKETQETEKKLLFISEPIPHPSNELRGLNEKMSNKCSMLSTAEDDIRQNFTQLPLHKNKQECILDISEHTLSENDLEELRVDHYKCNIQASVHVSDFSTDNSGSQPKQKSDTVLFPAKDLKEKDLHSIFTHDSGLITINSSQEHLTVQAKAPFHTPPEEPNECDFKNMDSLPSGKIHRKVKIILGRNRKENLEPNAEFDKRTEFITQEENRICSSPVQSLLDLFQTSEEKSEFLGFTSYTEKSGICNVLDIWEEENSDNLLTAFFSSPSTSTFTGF

Row | Structure (SMILES) | inhibition at 1.39 µM (stock) [%] | inhibition at 0.93 µM (stock) [%]
1 | O=c1nc(-c2ccc3[nH]ncc3c2)cc(-c2ccc(Oc3ccccc3)cc2)[nH]1 [Example 14, 4-(1H-indazol-5-yl)-6-(4-phenoxyphenyl)pyrimidin-2(1H)-one] | 84 | 
2 | O=c1nc(-c2ccc3[nH]ncc3c2)cc(-c2cccc(C(F)(F)F)c2)[nH]1 [Example 8, 4-(1H-indazol-5-yl)-6-[3-(trifluoromethyl)phenyl]pyrimidin-2(1H)-one] |  | 55
3 | O=c1nc(-c2ccc3[nH]ncc3c2)cc(-c2cccc(Cl)c2)[nH]1 [Example 10, 6-(3-chlorophenyl)-4-(1H-indazol-5-yl)pyrimidin-2(1H)-one] |  | 98
4 | COc1ccc(-c2cc(-c3ccc4[nH]ncc4c3)nc(=O)[nH]2)cc1OC [Example 7, 6-(3,4-dimethoxyphenyl)-4-(1H-indazol-5-yl)pyrimidin-2(1H)-one] |  | 62
5 | O=c1nc(-c2ccc3[nH]ncc3c2)cc(-c2ccc(N3CCOCC3)cc2)[nH]1 [Example 13, 4-(1H-indazol-5-yl)-6-(4-morpholin-4-ylphenyl)pyrimidin-2(1H)-one] | 92 | 
6 | O=c1nc(-c2ccc3[nH]ncc3c2)cc(-c2ccc(OCc3ccccc3)cc2)[nH]1 [Example 15, 6-[4-(benzyloxy)phenyl]-4-(1H-indazol-5-yl)pyrimidin-2(1H)-one] |  | 58
7 | O=c1nc(-c2ccc3[nH]ncc3c2)cc(-c2cccc(OCc3ccccc3)c2)[nH]1 [Example 12, 6-[3-(benzyloxy)phenyl]-4-(1H-indazol-5-yl)pyrimidin-2(1H)-one] | 98 | 
8 | COc1ccc(-c2cc(-c3ccc4[nH]ncc4c3)nc(=O)[nH]2)c(F)c1 [Example 3, 6-(2-fluoro-4-methoxyphenyl)-4-(1H-indazol-5-yl)pyrimidin-2(1H)-one] |  | 81
9 | O=c1nc(-c2ccc3[nH]ncc3c2)cc(-c2ccc(N3CCNCC3)cc2)[nH]1 [Example 16, 4-(1H-indazol-5-yl)-6-(4-piperazin-1-ylphenyl)pyrimidin-2(1H)-one] |  | 94
10 | O=c1nc(-c2ccc3[nH]ncc3c2)cc(-c2ccccc2F)[nH]1 [Example 9, 6-(2-fluorophenyl)-4-(1H-indazol-5-yl)pyrimidin-2(1H)-one] |  | 87
11 | COc1ccc(OC)c(-c2cc(-c3ccc4[nH]ncc4c3)nc(=O)[nH]2)c1 [Example 4, 6-(2,5-dimethoxyphenyl)-4-(1H-indazol-5-yl)pyrimidin-2(1H)-one] |  | 94
12 | COc1ccc(-c2cc(-c3ccc4[nH]ncc4c3)nc(=O)[nH]2)cc1F [Example 5, 6-(3-fluoro-4-methoxyphenyl)-4-(1H-indazol-5-yl)pyrimidin-2(1H)-one] |  | 75
13 | O=c1nc(-c2ccc3[nH]ncc3c2)cc(-c2ccccc2)[nH]1 [Example 11, 4-(1H-indazol-5-yl)-6-phenylpyrimidin-2(1H)-one] | 98 | 
14 | O=c1nc(-c2ccc3[nH]ncc3c2)cc(-c2cccc(F)c2)[nH]1 [Example 2, 6-(3-fluorophenyl)-4-(1H-indazol-5-yl)pyrimidin-2(1H)-one] |  | 82
15 | CCc1ccc(-c2cc(-c3ccc4[nH]ncc4c3)nc(=O)[nH]2)cc1 [Example 6, 6-(4-ethylphenyl)-4-(1H-indazol-5-yl)pyrimidin-2(1H)-one] |  | 83
